Source: US9084782B2, “Chemical inhibitors of cholesterol biosynthesis and venous angiogenesis” (The Regents of the University of California, priority 2011, dated 2015)

Assays:
[1] = tested on: Tg(kdrl:GFP) zebrafish embryos; assay: Caudal vein plexus (CVP) formation / venous angiogenesis in Tg(kdrl:GFP) zebrafish embryos; format: in vivo; details: for anti-angiogenetic activity of aplexone analogs (inhibition of CVP formation / venous angiogenesis): SAR study, compared with aplexone; for ranking in the angiogenesis test: compounds of FIG. 11
Text: Images of GFP expression in Tg(kdrl:GFP) embryos were acquired using a Zeiss SV-11 epifluorescence microscope. Confocal images were acquired using a Carl Zeiss Laser Scanning Systems LSM510 equipped with 20× air, 20× water or 40× water immersion objectives. For single time point confocal images, embryos were anesthetized with 0.01% tricaine and embedded in 1% agarose. When capturing time-lapse confocal movies, embryos were mounted in 3.5% methylcellulose (Sigma-Aldrich) and imaged for 5 hrs on a heated stage at 28.5° C. The images obtained were analyzed using the Zeiss LSM Image Brower version 4 and Image J.
A synthetic chemical library containing 168 compounds (Castellano et al., 2007) and 300 chemicals from Biomol International LP, consisting of 72 ion channel inhibitors (Cat No. 2805), 84 kinase/phosphatase inhibitors (Cat No. 2831), 84 orphan ligands (Cat No. 2825), and 60 endocannabinoids (Cat No. 2801) were screened. The synthetic small molecules were prepared through nucleophilic phosphine catalysis of allenoates (Zhu et al., 2003). Four Tg(kdrl:GFP) embryos were placed into each well of 96-well plates containing a 10 μM solution of each chemical compound dissolved in embryo buffer with 0.1% DMSO. The embryos were raised at 28.5° C. and examined for defects in blood vessel development at 1 and 2 days after treatment. Standard parameters such as numbers of somites and head to body angle were used to determine the stages of zebrafish embryos (Kimmel et al., 1995).
Aplexone treatment described in this study was carried out at a concentration of 10 μM starting at 10 hpf unless otherwise specified.
8 ng tnnt2 MO (Gene Tools) (Sehnert et al., 2002), 3 nl of 4 mM GGTI-2133 (Calbiochem), 3 nl of 5 mM L744,832 (Calbiochem) and 1 nl of 2M mevalonate (Sigma-Aldrich) were injected into 1-2 cell stage embryos.
The library of 168 compounds^24 prepared through the nucleophilic phosphine catalysis of allenes were screened using Tg(kdrl:GFP) zebrafish. Four embryos were placed in each well of 96-well plates containing a 10 uM solution of each chemical compound dissolved in embryo buffer with 0.1% DMSO. The embryos were raised at 28.5° C. and defects in blood vessel development were examined at 1 and 2 days after fertilization.

HMGCR pathway = assay: Cholesterol assay in embryo lysate (Amplex Red); format: in vivo, zebrafish; details: relative to 0.4% DMSO control
Procedure: The yolk was removed from embryos by vortexing in calcium-free Ringer's solution with 1 mM EDTA at 4° C. The embryos were then pelleted and washed with fresh calcium free Ringer's solution 5 times before being resuspended in cholesterol assay reaction buffer and were then lysed by sonication using a Sonifier 450 (Branson). Cholesterol levels in the embryo lysate were measured with an Amplex Red Cholesterol Assay Kit (Invitrogen) and Flex station II (Bucher Biotec). The total protein concentration of the embryo lysate was measured using a DC protein assay (Bio-Rad Laboratories) and SpectraMax plus (Molecular Devices).

Compound	anti-angiogenetic activity of aplexone analogs (inhibition of CVP formation / venous angiogenesis) [1]	other results
Cc1ccc(S(=O)(=O)N2CC(C(C)O)=CC[C@@H]2c2ccccc2)cc1 (stereo partly shown) [Compound 6]	did not inhibit the CVP formation	
C=CCCC(=O)C1=CCC(c2ccccc2)N(S(=O)(=O)c2ccc(C)cc2)C1 (stereo not shown) [Compound 8]	showed the bioactivity of aplexone albeit to a lesser extent	
CC(=O)C1=CCC(c2ccccc2)NC1 (stereo not shown) [Compound 11]	failed to inhibit the formation of CVP	
CC(=O)C1=CCC(c2ccccc2)N(Cc2ccccc2)C1 (stereo not shown) [Compound 12]	failed to inhibit the formation of CVP	
CC(=O)C1=CCC(c2ccccc2)N(S(C)(=O)=O)C1 (stereo not shown) [Compound 13]	failed to inhibit the formation of CVP	anti-angiogenetic activity of aplexone analogs (inhibition of CVP formation / venous angiogenesis) ([1]; listed as AP13): normal venous angiogenesis; embryonic cholesterol levels (HMGCR pathway): normal cholesterol levels
CC(=O)C1=CCCN(S(=O)(=O)c2ccc(C)cc2)C1 [Compound 16]	developed a single-lumen caudal vein like aplexone, albeit in lower efficiency	
CC(=O)C1=CCC(c2ccccc2)N(S(=O)(=O)c2ccccc2)C1 (stereo not shown) [Compound 17]	showed inhibitory activity for venous angiogenesis	
CC(=O)C1=CCC(c2ccccc2)N(S(=O)(=O)c2ccccc2C)C1 (stereo not shown) [Compound 18]	without showing much decrease in the activity	
CC(=O)C1=CCC(c2ccccc2)N(S(=O)(=O)c2cccc(C)c2)C1 (stereo not shown) [Compound 19]	without showing much decrease in the activity	
CC(=O)C1=CCC(c2ccccc2)N(S(=O)(=O)c2ccc(Cl)cc2)C1 (stereo not shown) [Compound 20]	showed inhibitory activity for venous angiogenesis	
CC(=O)C1=CCC(c2ccc(F)cc2)N(S(=O)(=O)c2ccc(C)cc2)C1 (stereo not shown) [Compound 24]	abolished the biological activity	
CC(=O)C1=CCC(c2ccc(Cl)cc2)N(S(=O)(=O)c2ccc(C)cc2)C1 (stereo not shown) [Compound 25]	diminished the antiangiogenic activity	
CC(=O)C1=CCC(c2ccc(C)cc2)N(S(=O)(=O)c2ccc(C)cc2)C1 (stereo not shown) [Compound 26]	active	ranking in the angiogenesis test [1]: most active
CC(=O)C1=CCC(c2ccc(Cl)c(Cl)c2)N(S(=O)(=O)c2ccc(C)cc2)C1 (stereo not shown) [Compound 31]	not active	
CC(=O)C1=CCC(c2ccc3c(c2)OCO3)N(S(=O)(=O)c2ccc(C)cc2)C1 (stereo not shown) [Compound 32]	not active	
CC(=O)C1=CCC(c2cccs2)N(S(=O)(=O)c2ccc(C)cc2)C1 (stereo not shown) [Compound 33]	active	ranking in the angiogenesis test [1]: most active
CC(=O)C1=CCC(c2ccco2)N(S(=O)(=O)c2ccc(C)cc2)C1 (stereo not shown) [Compound 34]	inactive	
CC(=O)C1=CCC(c2ccc(C)o2)N(S(=O)(=O)c2ccc(C)cc2)C1 (stereo not shown) [Compound 35]	inactive	
CC(=O)C1=CCC(c2cccn2C)N(S(=O)(=O)c2ccc(C)cc2)C1 (stereo not shown) [Compound 36]	inactive	
CC(=O)C1=CCC(c2cccc3ccccc23)N(S(=O)(=O)c2ccc(C)cc2)C1 (stereo not shown) [Compound 37]	inactive	
CC(C)C[C@H](NC(=O)c1ccc(NCc2cnc[nH]2)cc1-c1cccc2ccccc12)C(=O)O [GGTI-2133, reference compound]		CVP formation ([1]; 3 nl of 4 mM GGTI-2133 injected at 1-2 cell stage, 48 hpf): CVP phenotypes reminiscent of aplexone treatment
CC[C@H](C)[C@@H](CO[C@@H](Cc1ccccc1)C(=O)N[C@@H](CCS(C)(=O)=O)C(=O)OC(C)C)NC[C@@H](N)CS [L744,832, reference compound]		CVP formation ([1]; 3 nl of 5 mM L744,832 injected at 1-2 cell stage, 48 hpf): does not affect the formation of the CVP
c1ccc2c(-c3ccncc3)c[nH]c2c1 [Rockout, reference compound]		CVP formation ([1]; 50 μM Rockout, 48 hpf): recapitulated the caudal vein phenotype of aplexone treatment
CC(C)c1c(C(=O)Nc2ccccc2)c(-c2ccccc2)c(-c2ccc(F)cc2)n1CC[C@@H](O)C[C@@H](O)CC(=O)O [atorvastatin, reference compound]		CVP formation at suboptimal level ([1]; 2 μM single agent): normal CVP; CVP formation ([1]; atorvastatin-treated embryos, from 10 hpf, imaged at 48 hpf): phenotypes similar to those observed in embryos exposed to aplexone; embryonic cholesterol levels (HMGCR pathway): reduce cholesterol level significantly
CC(O)(CCO)CC(=O)O (stereo not shown) [mevalonate, reference compound]		effect on aplexone's inhibition of CVP formation ([1]; 1 nl of 2M mevalonate injected, 5 μM aplexone from 2 hpf): blocks the inhibitory effects of aplexone
